Patent US20260055096A1, “AZOLE PESTICIDAL COMPOUNDS” (BASF SE, priority 2022, published 2026)

Experiments:
Format in all cases: in vivo
[1] = test system: Diamond back moth (Plutella xylostella); test: Example B.8: Action on diamond back moth (Plutella xylostella), egg and larval mortality on insect diet in microtiter plates; conditions: for egg and larval mortality: comparative experiment vs prior art compounds; for mortality at 800 ppm: Plutella xylostella, 120 h, egg and larval mortality after 5 days, read-out: mortality in comparison with untreated controls
Description: For evaluating control of diamond back moth (Plutella xylostella) the test unit consisted of 96-well-microtiter plates containing an insect diet and 15-25 P. xylostella eggs. The compounds or mixtures were formulated using a solution containing 75% water and 25% DMSO. Different concentrations of formulated compounds or mixtures were sprayed onto the insect diet at 5 μl, using a custom-built micro atomizer, at two replications. For experimental mixtures in these tests identical volumes of both mixing partners at the desired concentrations respectively, were mixed together. After application, microtiter plates were incubated at 28±1° C., 80±5% RH for 5 days. Egg and larval mortality was then visually assessed.

[2] = test system: boll weevil (Anthonomus grandis); test: Example B.3: Action on boll weevil (Anthonomus grandis), egg and larval mortality on insect diet; conditions: 120 h, egg and larval mortality after 5 days, read-out: mortality in comparison with untreated controls
Description: For evaluating control of boll weevil (Anthonomus grandis) the test unit consisted of 96-well-microtiter plates containing an insect diet and 5-10 A. grandis eggs.
The compounds were formulated using a solution containing 75% (v/v) water and 25% (v/v) DMSO. Different concentrations of formulated compounds were sprayed onto the insect diet at […], using a custom-built micro atomizer, at two replications.
After application, microtiter plates were incubated at about 25±1C and about 75±5% relative humidity for 5 days. Egg and larval mortality were then visually assessed.

[3] = test system: yellow fever mosquito (Aedes aegypti); test: whole plant or invertebrate; conditions: 48 h, larval mortality after 2 days, read-out: mortality in comparison with untreated controls
Description: For evaluating control of yellow fever mosquito (Aedes aegypti) the test unit consisted of 96-well-microtiter plates containing 200 μl of tap water per well and 5-15 freshly hatched A. aegypti larvae.
The active compounds or mixtures were formulated using a solution containing 75% (v/v) water and 25% (v/v) DMSO. Different concentrations of formulated compounds or mixtures were sprayed onto the insect diet at 2.5 μl, using a custom-built micro atomizer, at two replications.
For experimental mixtures in these tests identical volumes of both mixing partners at the desired concentrations respectively, were mixed together.
After application, microtiter plates were incubated at 28 #1° C., 80 #5% RH for 2 days. Larval mortality was then visually assessed.

[4] = test system: Southern armyworm (Spodoptera eridania), 2nd instar larvae; test: Example B.7: Action on southern armyworm (Spodoptera eridania), 2nd instar larvae on sprayed lima bean plants; conditions: 96 h, 4 days after treatment, read-out: mortality in comparison with untreated controls
Description: The active compounds were formulated by a Tecan liquid handler in 100% cyclohexanone as a 10,000-ppm solution supplied in tubes. The 10,000-ppm solution was serially diluted in 100% cyclohexanone to make interim solutions. These served as stock solutions for which final dilutions were made by the Tecan in 50% acetone:50% water (v/v) into 10 or 20 ml glass vials. A nonionic surfactant (Kinetic®) was included in the solution at a volume of 0.01% (v/v). The vials were then inserted into an automated electrostatic sprayer equipped with an atomizing nozzle for application to plants/insects.
Lima bean plants (variety Sieva) were grown 2 plants to a pot and selected for treatment at the 1st true leaf stage. Test solutions were sprayed onto the foliage by an automated electrostatic plant sprayer equipped with an atomizing spray nozzle. The plants were dried in the sprayer fume hood and then removed from the sprayer. Each pot was placed into perforated plastic bags with a zip closure. About 10 to 11 armyworm larvae were placed into the bag and the bags zipped closed. Test plants were maintained in a growth room at about 25° C. and about 20-40% relative humidity for 4 days, avoiding direct exposure to fluorescent light (24-hour photoperiod) to prevent trapping of heat inside the bags. Mortality and reduced feeding were assessed 4 days after treatment, compared to untreated control plants.

[5] = test system: Orchid thrips (Dichromothrips corbetti); test: Example B.2: Action on orchid thrips (Dichromothrips corbetti), floral-immersion technique; conditions: 72 hours after treatment, read-out: mortality in comparison with untreated controls
Description: Dichromothrips corbetti adults used for bioassay were obtained from a colony maintained continuously under laboratory conditions. For testing purposes, the test compound is diluted in a 1:1 mixture of acetone:water (vol:vol), plus Kinetic® HV at a rate of 0.01% v/v.
Thrips potency of each compound was evaluated by using a floral-immersion technique. All petals of individual, intact orchid flowers were dipped into treatment solution and allowed to dryin Petri dishes. Treated petals were placed into individual re-sealable plastic along with about 20 adult thrips. All test arenas were held under continuous light and a temperature of about 28° C. for duration of the assay. After 3 days, the numbers of live thrips were counted on each petal. The percent mortality was recorded 72 hours after treatment.

[6] = test system: tobacco budworm (Heliothis virescens); test: Example B.5: Action on tobacco budworm (Heliothis virescens), egg and larval mortality on insect diet; conditions: 120 h, egg and larval mortality after 5 days, read-out: mortality in comparison with untreated controls
Description: For evaluating control of tobacco budworm (Heliothis virescens) the test unit consisted of 96-well-microtiter plates containing an insect diet and 15-25 H. virescens eggs.
The compounds were formulated using a solution containing 75% v/v water and 25% v/v DMSO. Different concentrations of formulated compounds were sprayed onto the insect diet at 10 μl, using a custom-built micro atomizer, at two replications.
After application, microtiter plates were incubated at about 28±1C and about 80±5% relative humidity for 5 days. Egg and larval mortality were then visually assessed.

[7] = test system: Diamond back moth (Plutella xylostella); test: Example B.6: Action on diamond back moth (Plutella xylostella), cabbage leaf dip, 3rd instar larvae; conditions: foliar, 72 hours after treatment, read-out: mortality in comparison with untreated controls
Description: The active compound is dissolved at the desired concentration in a mixture of 1:1 (v/v) distilled water: acetone. Surfactant (Kinetic® HV) is added at a rate of 0.01% (v/v). The test solution is prepared at the day of use.
Leaves of cabbage were dipped in test solution and air-dried. Treated leaves were placed in petri dishes lined with moist filter paper and inoculated with ten 3rd instar larvae. Mortality was recorded 72 hours after treatment. Feeding damages were also recorded using a scale of 0-100%.

With `CC(C)c1ccccc1N1C(=O)CS/C1=N\C(=O)Nc1ccc(-c2nc(Nc3ccc(OC(F)(F)F)cc3)n(C)n2)cc1` [EP3974414 I-001, reference compound] the “egg and larval mortality” value ([1]; 25 ppm) was 0.

For `CC(C)c1ccccc1N1C(=O)CS/C1=N\C(=O)Nc1ccc(-c2nc(Nc3cccc(OC(F)(F)F)c3)n(C)n2)cc1` [EP3974414 I-006, reference compound], the “egg and larval mortality” value ([1]; 25 ppm) was 38 and the “egg and larval mortality” value ([1]; 100 ppm) was 0.

`Cc1ccc(C(C)C)c(N2C(=O)CS/C2=N\C(=O)Nc2ccc(-c3nn(C)c(NC(=O)c4ccc(C(F)(F)F)cc4)c3C)cc2)c1` [Example C-1, N-[5-[4-[[(Z)-[3-(2-isopropyl-5-methyl-phenyl)-4-oxo-thiazolidin-2-ylidene]carbamoyl]amino]phenyl]-2,4-dimethyl-pyrazol-3-yl]-4-(trifluoromethyl)benzamide] gave a mortality at 800 ppm [2] of no less than 75%, a mortality at 800 ppm [3] of no less than 50% and a mortality at 300 ppm [4] of no less than 75%. For the same compound, the mortality at 300 ppm [5] was no less than 75%, the mortality at 800 ppm [6] was no less than 75% and the mortality at 300 ppm [7] was no less than 75%.

For `CC(=O)OCS/C(=N\C(=O)Nc1ccc(-c2nn(C)c(NC(=O)c3ccc(C(F)(F)F)cc3)c2C)cc1)Nc1cc(C)ccc1C(C)C` [Example C-2, [(Z)-N′-[[4-[1,4-dimethyl-5-[[4-(trifluoromethyl)benzoyl]amino]pyrazol-3-yl]phenyl]carbamoyl]-N-(2-isopropyl-5-methyl-phenyl)carbamimidoyl]sulfanylmethyl acetate], the mortality at 800 ppm [2] was no less than 75%, the mortality at 800 ppm [3] was no less than 50% and the mortality at 300 ppm [4] was no less than 75%. The mortality at 300 ppm [5] was no less than 75%, the mortality at 800 ppm [6] was no less than 75% and the mortality at 300 ppm [7] was no less than 75%.

Compound `Cc1ccc(C(C)C)c(NC(=S)NC(=O)Nc2ccc(-c3nn(C)c(NC(=O)c4ccc(C(F)(F)F)cc4)c3C)cc2)c1` [Example C-3, N-[5-[4-[(2-isopropyl-5-methyl-phenyl)carbamothioylcarbamoylamino]phenyl]-2,4-dimethyl-pyrazol-3-yl]-4-(trifluoromethyl)benzamide] has a mortality at 800 ppm [2] of no less than 75%, a mortality at 800 ppm [3] of no less than 50% and a mortality at 300 ppm [4] of no less than 75%. It also gave a mortality at 300 ppm [5] of no less than 75%, a mortality at 800 ppm [6] of no less than 75% and a mortality at 300 ppm [7] of no less than 75%.

`Cc1ccc(C(C)C)c(N2C(=O)CS/C2=N\C(=O)Nc2ccc(-c3nn(C)c(N(C)C(=O)c4ccc(C(F)(F)F)cc4)c3C)cc2)c1` [Example C-4, N-[5-[4-[[(Z)-[3-(2-isopropyl-5-methyl-phenyl)-4-oxo-thiazolidin-2-ylidene]carbamoyl]amino]phenyl]-2,4-dimethyl-pyrazol-3-yl]-N-methyl-4-(trifluoromethyl)benzamide] gave a mortality at 800 ppm [2] of no less than 75%, a mortality at 800 ppm [3] of no less than 50% and a mortality at 300 ppm [4] of no less than 75%. For the same compound, the mortality at 300 ppm [5] was no less than 75%, the mortality at 800 ppm [6] was no less than 75% and the mortality at 300 ppm [7] was no less than 75%.

`Cc1ccc(C(C)C)c(N2C(=O)CS/C2=N\C(=O)Nc2ccc(-c3nc(NC(=O)c4ccc(OC(F)(F)F)cc4)n(C)n3)cc2)c1` [Example C-5, N-[5-[4-[[(Z)-[3-(2-isopropyl-5-methyl-phenyl)-4-oxo-thiazolidin-2-ylidene]carbamoyl]amino]phenyl]-2-methyl-1,2,4-triazol-3-yl]-4-(trifluoromethoxy)benzamide] was tested, and the mortality at 800 ppm [2] was no less than 75%, the mortality at 300 ppm [4] was no less than 75% and the mortality at 300 ppm [5] was no less than 75%. It also gave a mortality at 800 ppm [6] of no less than 75% and a mortality at 300 ppm [7] of no less than 75%.

In the case of `Cc1ccc(C(C)C)c(N2C(=O)CS/C2=N\C(=O)Nc2ccc(-c3nn(C)c(NC(=O)c4ccc(OC(F)(F)F)cc4)c3C#N)cc2)c1` [Example C-7, N-[4-cyano-5-[4-[[(Z)-[3-(2-isopropyl-5-methyl-phenyl)-4-oxo-thiazolidin-2-ylidene]carbamoyl]amino]phenyl]-2-methyl-pyrazol-3-yl]-4-(trifluoromethoxy)benzamide], the mortality at 800 ppm [2] is reported as no less than 75%, the mortality at 800 ppm [3] is reported as no less than 50% and the mortality at 300 ppm [4] is reported as no less than 75%. The mortality at 300 ppm [5] was no less than 75%, the mortality at 800 ppm [6] was no less than 75% and the mortality at 300 ppm [7] was no less than 75%.

With `Cc1ccc(C(C)C)c(N2C(=O)CS/C2=N\C(=O)Nc2ccc(-c3nn(C)c(NC(=O)c4ccc(OC(F)(F)F)cc4)c3C)cc2Cl)c1` [Example C-8, N-[5-[3-chloro-4-[[(Z)-[3-(2-isopropyl-5-methyl-phenyl)-4-oxo-thiazolidin-2-ylidene]carbamoyl]amino]phenyl]-2,4-dimethyl-pyrazol-3-yl]-4-(trifluoromethoxy)benzamide] the mortality at 800 ppm [2] was no less than 75%, the mortality at 800 ppm [3] was no less than 50% and the mortality at 300 ppm [4] was no less than 75%. It also gave a mortality at 300 ppm [5] of no less than 75%, a mortality at 800 ppm [6] of no less than 75% and a mortality at 300 ppm [7] of no less than 75%.

With `Cc1ccc(C(C)C)c(N2C(=O)CS/C2=N\C(=O)N(C)c2ccc(-c3nn(C)c(NC(=O)c4ccc(OC(F)(F)F)cc4)c3C)cc2)c1` [Example C-112, N-[5-[4-[[(Z)-[3-(2-isopropyl-5-methyl-phenyl)-4-oxo-thiazolidin-2-ylidene]carbamoyl]-methyl-amino]phenyl]-2,4-dimethyl-pyrazol-3-yl]-4-(trifluoromethoxy)benzamide] the mortality at 800 ppm [2] was no less than 75%, the mortality at 800 ppm [1] was no less than 75% and the mortality at 800 ppm [3] was no less than 50%. It also gave a mortality at 800 ppm [6] of no less than 75%.

`CC(C)c1ccccc1N1C(=O)CS/C1=N\C(=O)Nc1ccc(-c2nc(NC(=O)c3ccc(OC(F)(F)F)cc3)n(C)n2)cc1` [Example C-119] was tested, and the mortality at 800 ppm [2] was no less than 75%, the “egg and larval mortality” value ([1]; 25 ppm) was 75 and the mortality at 800 ppm [1] was no less than 75%. The mortality at 300 ppm [4] was no less than 75%.

For `CC(C)c1ccccc1N1C(=O)CS/C1=N\C(=O)Nc1ccc(-c2nc(NC(=O)c3cccc(OC(F)(F)F)c3)n(C)n2)cc1` [Example C-126], the mortality at 800 ppm [2] was no less than 75%, the “egg and larval mortality” value ([1]; 25 ppm) was 75 and the “egg and larval mortality” value ([1]; 100 ppm) was 100. The mortality at 800 ppm [1] was no less than 75%, the mortality at 800 ppm [3] was no less than 50% and the mortality at 300 ppm [4] was no less than 75%. For the same compound, the mortality at 800 ppm [6] was no less than 75%.
